This assay relates to collection of strains of P. aeruginosa. The assay can be described thus: Agar well diffusion test (several strains). It is filed as cell-based, Pseudomonas aeruginosa. The conditions noted are these: control samples. On the procedure: Conjugates 10 and 11 were first evaluated for their antibacterial ability against a collection of strains of P. aeruginosa using the agar well diffusion test. The influence of iron concentration on antibacterial activity was probed as well by conducting assays in iron-rich and iron-deficient media.
All liquids and media were sterilized by autoclaving (121° C., 15 min) before use. All aqueous solutions and media were prepared using distilled, deionized, and filtered water (Millipore Milli-Q Advantage A10 Water Purification System). Luria broth (LB) was purchased from VWR. Mueller-Hinton No. 2 broth (MHII broth; cation adjusted) was purchased from Sigma-Aldrich (St. Louis, Mo.). Iron-deficient (—Fe) MHII broth was prepared by adding 0.8 mL of a 1 mg/mL sterile aq. solution of 2,2′-bipyridine to 49.2 mL of MHII broth. Iron-rich (+Fe) MHII broth was prepared by adding 0.8 mL of a 1 mg/mL sterile aq. solution of FeCl3 to 49.2 mL of MHII broth. Mueller-Hinton No. 2 agar (MHII agar; HiMedia Laboratories) was purchased from VWR. Iron-deficient (−Fe) MHII agar was prepared by adding 0.5 mL of a 1 mg/mL sterile aq. solution of 2,2′-bipyridine to 34 mL of melted MHII agar with gentle mixing. Iron-rich (+Fe) MHII agar was prepared by adding 0.5 mL of a 1 mg/mL sterile aq. solution of FeCl3 to 34 mL of melted MHII agar with gentle mixing. See also Wencewicz, T. A. Dissertation, University of Notre Dame, Notre Dame, Ind., 2011, for relevant techniques.
Antibacterial Susceptibility Testing by the Agar Diffusion Assay.
Antibacterial activity of the compounds was determined by a modified Kirby-Bauer agar diffusion assay. Overnight cultures of test organisms were grown in LB broth for 18-24 h and standard suspensions of […] were prepared in saline solution (0.9% NaCl) according to a 0.5 BaSO4 McFarland Standard. This standardized suspension (0.1 mL) was added to 34 mL of sterile, melted agar (−Fe or +Fe) tempered to 47-50° C. After gentle mixing, the inoculated agar media was poured into a sterile plastic petri dish (145 mm×20 mm) and allowed to solidify near a flame with the lid ajar for about 30 min. Wells of 9.0 mm diameter were cut from the petri dish agar and filled with exactly 50 μL of the test sample solution. The petri dish was incubated at 37° C. for 18-24 h and the inhibition zone diameters were measured (mm) with an electronic caliper after 24 h.

Each structure is given as a SMILES string.

Consider `CC(=O)Oc1cccc(C(=O)NCCCC(CCCNC(=O)c2cccc(OC(C)=O)c2OC(C)=O)(CCCNC(=O)c2cccc(OC(C)=O)c2OC(C)=O)NC(=O)CCC(=O)O)c1OC(C)=O` [Compound 9], for which the “inhibitory effect in the agar well diffusion test” value was “did not show any inhibitory effect”.

For the compound `CC(=O)Oc1cccc(C(=O)NCCCC(CCCNC(=O)c2cccc(OC(C)=O)c2OC(C)=O)(CCCNC(=O)c2cccc(OC(C)=O)c2OC(C)=O)NC(=O)CCC(=O)N[C@@H](C(N)=O)c2ccccc2)c1OC(C)=O` [Compound S1], the “inhibitory effect in the agar well diffusion test” value is reported as “did not show any inhibitory effect”.

Values taken from patent US9302012B2, “Anti-bacterial siderophore-aminopenicillin conjugates” (University of Notre Dame Du Lac, priority 2012, dated 2016).
